Measurements as given in US20230212571A1, “COMPOSITIONS AND METHODS FOR DELIVERING POLYNUCLEOTIDES” (NeOnc Technologies, Inc., priority 2020, published 2023).

System: Mgp^−/− mouse model of AVM
Test: Organ histology and complete blood count
Type: in vivo
Conditions: Mgp^−/− mice, IN 2-weeks
Protocol: In vivo efficacy studies were performed using 3-week-old Mgp^+/- C57BL/6 mice^16,17 (Yao Y, Jumabay M, Wang A, Boström K I. Matrix Gla protein deficiency causes arteriovenous malformations in mice. J Clin Invest. 2011; 121(8):2993-3004) (Yao Y, Yao […], et al. Reducing Jagged 1 and 2 levels prevents cerebral arteriovenous malformations in matrix Gla protein deficiency. Proc Nat Acad Sci USA. 2013; 110(47):19071-19076). provided by Dr. Yucheng Yao (UCLA, Los Angeles) and mated to obtain the appropriate genotypes. Only about 10-15% of each litter were born with the Mgp^-/- genotype, and among those, only about 45% survived until the end of the treatment and/or the imaging of the brain vasculature, due to the extreme severity of the disease in this mouse model. These animals not only suffer AVMs in the brain, but all major organs are also affected and dysfunctional. Thus, […] might die due to several causes, including stroke, severe lung inflammation that causes respiratory failure-especially when anesthesia is used-, organ failure due to liver and/or spleen malfunction, heart failure, etc., drastically limiting the number of the Mgp^-/- mice available for the CTA studies. […] Treatment with 0.08 nmol/mouse of miR-18a or scramble microRNA was administered IN daily for 2-weeks. 2.5 μL/nostril were delivered in RNase-free water. Ultra-high-resolution in vivo computed tomography angiography (CTA) was performed in mice for 3D imaging of whole brain vascular architecture^18, ([…], Rendon D, et al. Ultra-High-Resolution In vivo Computed Tomography Imaging of Mouse Cerebrovasculature Using a Long Circulating Blood Pool Contrast Agent. Scientific reports. 2015; 5:10178) as described in Data. The vascular data was quantified using ImageJ. Regions of interest encompassing the Circle of Willis (CoW) and the azygous of the anterior cerebral artery (AzACA) and its branches were selected in CT images using thick slab maximum intensity projection (MIP) or 3D volume rendering. The images were converted to 8-bit grayscale and thresholded to highlight the vasculature containing pixels. The pixels were analyzed as particles and normalized to results from the wildtype mice (WT, Mgp^+/+). Immediately after imaging, mice were euthanized, and brains were frozen in Clear Frozen Section Compound (VWR) and stored at -80° C. Blood was collected for complete blood count (Antech). The lungs, livers, spleens, femurs, and kidneys were harvested and fixed in 10% formalin. Photographs of the stained sections were captured using an Eclipse 80i microscope (Nikon).

## hsa-miR-18a-5p (UAGGUGCAUCUAGUGCAGAUAG; chemistry not given here; listed as Homo sapiens) [small non-coding RNA molecule involved in post-transcriptional regulation of gene expression; Dharmacon]
  bone marrow phenotype (adipose cells, megakaryocytes): normalized
  macrophages in alveoli, lung inflammation: not present
  polychromasia: minimal or not present
  spleens, macroscopic, compared with Mgp^+/+ and Mgp^−/+: comparable
n=3
  blood levels of hematocrit (HCT): normalized
  blood levels of hemoglobin (HGB): normalized
  blood levels of red blood cells (RBC): normalized
